In paper doi:10.1101/2023.03.24.534094v2 (biorxiv, 2023):
Read-outs that look alike come from different tables or passages of the source. Values belong to the compound of their own block, whether it stands above or below them.

Experiments:
Test in all cases: biochemical
[1] = biological target: T1, PLK4 (Homo sapiens, UniProt O00444)
T1 sequence (O00444 1-970): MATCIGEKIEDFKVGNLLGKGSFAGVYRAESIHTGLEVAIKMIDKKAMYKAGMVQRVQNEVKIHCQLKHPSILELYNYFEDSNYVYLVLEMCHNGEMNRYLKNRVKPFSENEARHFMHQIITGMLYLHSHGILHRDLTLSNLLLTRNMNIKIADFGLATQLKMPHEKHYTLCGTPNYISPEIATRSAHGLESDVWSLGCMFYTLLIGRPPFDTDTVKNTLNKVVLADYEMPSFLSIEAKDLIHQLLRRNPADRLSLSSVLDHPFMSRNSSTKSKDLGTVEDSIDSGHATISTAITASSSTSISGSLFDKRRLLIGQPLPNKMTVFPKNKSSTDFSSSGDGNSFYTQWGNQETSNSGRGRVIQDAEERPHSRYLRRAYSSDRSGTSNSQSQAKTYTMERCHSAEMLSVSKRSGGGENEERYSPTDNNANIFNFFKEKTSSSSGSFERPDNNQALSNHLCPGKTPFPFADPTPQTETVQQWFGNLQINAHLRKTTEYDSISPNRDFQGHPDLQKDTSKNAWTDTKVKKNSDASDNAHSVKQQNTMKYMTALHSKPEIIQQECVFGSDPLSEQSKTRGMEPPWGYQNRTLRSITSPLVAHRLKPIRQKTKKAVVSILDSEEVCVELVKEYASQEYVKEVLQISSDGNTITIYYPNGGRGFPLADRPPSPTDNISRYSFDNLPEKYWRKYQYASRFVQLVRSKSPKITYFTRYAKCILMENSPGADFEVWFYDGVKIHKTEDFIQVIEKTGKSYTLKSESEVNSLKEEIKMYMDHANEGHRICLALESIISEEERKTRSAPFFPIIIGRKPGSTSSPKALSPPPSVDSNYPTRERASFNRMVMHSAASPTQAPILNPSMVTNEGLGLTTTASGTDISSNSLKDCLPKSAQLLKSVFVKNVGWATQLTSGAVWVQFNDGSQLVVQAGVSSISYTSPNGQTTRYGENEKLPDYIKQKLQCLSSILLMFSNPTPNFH

[2] = biological target: T2, DRAK2 (Homo sapiens, UniProt O94768)
T2 sequence (O94768 1-372): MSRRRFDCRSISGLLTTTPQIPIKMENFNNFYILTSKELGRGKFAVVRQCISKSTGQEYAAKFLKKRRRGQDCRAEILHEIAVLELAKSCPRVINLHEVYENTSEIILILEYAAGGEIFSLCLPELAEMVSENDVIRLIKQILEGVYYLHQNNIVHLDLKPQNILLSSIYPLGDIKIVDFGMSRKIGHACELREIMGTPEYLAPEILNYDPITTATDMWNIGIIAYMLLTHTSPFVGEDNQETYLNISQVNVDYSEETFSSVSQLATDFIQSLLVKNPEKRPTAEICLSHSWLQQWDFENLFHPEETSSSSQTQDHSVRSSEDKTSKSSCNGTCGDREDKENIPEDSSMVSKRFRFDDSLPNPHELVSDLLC

[3] = biological target: T3, TTK (Homo sapiens, UniProt P33981)
T3 sequence (P33981 1-857): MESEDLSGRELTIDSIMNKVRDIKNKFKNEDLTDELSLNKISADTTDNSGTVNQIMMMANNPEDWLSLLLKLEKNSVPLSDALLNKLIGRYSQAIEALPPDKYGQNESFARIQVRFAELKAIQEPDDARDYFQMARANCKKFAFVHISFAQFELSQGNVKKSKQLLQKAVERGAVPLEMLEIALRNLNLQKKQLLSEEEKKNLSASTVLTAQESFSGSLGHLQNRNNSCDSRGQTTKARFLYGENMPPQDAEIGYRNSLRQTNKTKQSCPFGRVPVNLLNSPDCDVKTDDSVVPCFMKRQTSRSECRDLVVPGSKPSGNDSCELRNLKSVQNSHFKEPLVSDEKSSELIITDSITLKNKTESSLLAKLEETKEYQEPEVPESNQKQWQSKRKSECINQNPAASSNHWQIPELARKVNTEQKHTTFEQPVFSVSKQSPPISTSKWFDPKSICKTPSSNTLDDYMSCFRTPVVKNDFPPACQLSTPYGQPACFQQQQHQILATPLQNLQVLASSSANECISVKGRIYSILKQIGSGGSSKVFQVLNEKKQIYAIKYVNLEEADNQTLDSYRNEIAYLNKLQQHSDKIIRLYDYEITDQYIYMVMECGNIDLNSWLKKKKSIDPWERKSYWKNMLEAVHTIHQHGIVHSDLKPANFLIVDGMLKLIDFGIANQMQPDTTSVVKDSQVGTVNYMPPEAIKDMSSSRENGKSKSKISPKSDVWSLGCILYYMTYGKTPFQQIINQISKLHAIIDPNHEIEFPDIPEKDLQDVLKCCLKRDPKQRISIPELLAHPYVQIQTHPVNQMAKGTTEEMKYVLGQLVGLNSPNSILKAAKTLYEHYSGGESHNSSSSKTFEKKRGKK

[4] = biological target: CaMK1d (Homo sapiens, UniProt Q8IU85)
[5] = biological target: EpHA2 (Homo sapiens, UniProt P29317)
[6] = biological target: T4, MYT1 (Homo sapiens, UniProt Q99640)
T4 sequence (Q99640 1-499): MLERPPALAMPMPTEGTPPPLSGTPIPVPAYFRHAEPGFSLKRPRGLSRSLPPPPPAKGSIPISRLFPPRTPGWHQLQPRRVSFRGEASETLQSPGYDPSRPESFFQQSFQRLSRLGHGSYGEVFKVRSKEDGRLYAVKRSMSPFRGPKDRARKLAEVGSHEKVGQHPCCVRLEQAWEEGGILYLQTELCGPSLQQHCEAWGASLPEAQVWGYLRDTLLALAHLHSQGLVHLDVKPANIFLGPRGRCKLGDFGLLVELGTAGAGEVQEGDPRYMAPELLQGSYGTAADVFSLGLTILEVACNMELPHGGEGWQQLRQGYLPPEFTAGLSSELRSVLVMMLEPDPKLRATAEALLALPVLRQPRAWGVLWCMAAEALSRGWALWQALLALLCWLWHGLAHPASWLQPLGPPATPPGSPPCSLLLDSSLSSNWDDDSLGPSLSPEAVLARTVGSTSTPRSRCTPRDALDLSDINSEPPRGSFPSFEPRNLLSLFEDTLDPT

Sequence of EpHA2 (P29317 whole entry): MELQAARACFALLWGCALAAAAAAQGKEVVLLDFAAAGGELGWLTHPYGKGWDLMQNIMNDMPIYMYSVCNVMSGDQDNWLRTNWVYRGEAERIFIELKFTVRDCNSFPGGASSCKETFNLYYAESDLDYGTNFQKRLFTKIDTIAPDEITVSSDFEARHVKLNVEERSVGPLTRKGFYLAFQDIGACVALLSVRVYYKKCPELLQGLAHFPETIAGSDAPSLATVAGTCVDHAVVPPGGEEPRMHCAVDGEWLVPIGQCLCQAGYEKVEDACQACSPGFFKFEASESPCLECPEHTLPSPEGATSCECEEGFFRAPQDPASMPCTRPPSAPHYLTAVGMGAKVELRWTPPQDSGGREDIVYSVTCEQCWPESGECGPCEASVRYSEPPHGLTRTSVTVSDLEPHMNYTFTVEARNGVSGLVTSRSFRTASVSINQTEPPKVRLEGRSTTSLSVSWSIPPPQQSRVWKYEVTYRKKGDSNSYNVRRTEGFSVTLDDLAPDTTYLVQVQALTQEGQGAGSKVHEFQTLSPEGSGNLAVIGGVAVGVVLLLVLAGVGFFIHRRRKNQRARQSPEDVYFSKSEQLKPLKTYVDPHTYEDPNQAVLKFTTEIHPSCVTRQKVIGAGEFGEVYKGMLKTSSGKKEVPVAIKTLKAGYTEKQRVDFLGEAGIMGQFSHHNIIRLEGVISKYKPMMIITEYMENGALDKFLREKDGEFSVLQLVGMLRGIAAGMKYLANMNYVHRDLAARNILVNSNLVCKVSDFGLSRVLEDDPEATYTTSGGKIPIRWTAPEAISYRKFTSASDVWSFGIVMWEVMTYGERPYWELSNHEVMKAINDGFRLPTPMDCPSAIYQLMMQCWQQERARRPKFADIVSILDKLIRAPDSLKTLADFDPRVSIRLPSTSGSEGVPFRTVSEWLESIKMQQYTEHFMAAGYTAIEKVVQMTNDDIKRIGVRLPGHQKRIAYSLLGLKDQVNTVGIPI
Sequence of CaMK1d (Q8IU85 whole entry): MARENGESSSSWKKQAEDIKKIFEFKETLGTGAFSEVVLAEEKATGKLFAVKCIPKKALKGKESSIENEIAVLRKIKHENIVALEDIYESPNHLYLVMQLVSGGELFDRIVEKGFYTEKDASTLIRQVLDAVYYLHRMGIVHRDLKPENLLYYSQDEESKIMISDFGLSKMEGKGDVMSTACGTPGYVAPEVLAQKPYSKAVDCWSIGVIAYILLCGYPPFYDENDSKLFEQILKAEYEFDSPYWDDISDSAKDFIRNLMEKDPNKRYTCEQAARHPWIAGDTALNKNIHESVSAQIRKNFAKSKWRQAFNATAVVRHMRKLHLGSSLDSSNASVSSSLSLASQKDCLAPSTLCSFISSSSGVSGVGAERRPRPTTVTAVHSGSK

SMILES: CNc1ncc2cc(-c3cc(C(F)(F)F)ccc3Cl)c(=O)n(CCCCN)c2n1 [compound 9, 8-(4-Aminobutyl)-6-(2-chloro-5-(trifluoromethyl)phenyl)-2-(methylamino)pyrido[2,3-d]pyrimidin-7(8H)-one]
- ΔTm at 10 µM ([1]; read-out: dTm 9): 0.3 °C
- ΔTm at 10 µM ([2]; read-out: dTm 9): 0 °C
- ΔTm at 10 µM ([3]; read-out: dTm 9): -0.5 °C
- ΔTm at 10 µM ([4]; read-out: dTm 9): 2.3 °C
- ΔTm at 10 µM ([5]; read-out: dTm 9): 4.8 °C
- ΔTm at 10 µM ([6]; read-out: dTm 9): -0.2 °C

SMILES: CNc1ncc2cc(-c3cc(Cl)ccc3Br)c(=O)n(CCCCN)c2n1 [compound 10, 8-(4-Aminobutyl)-6-(2-bromo-5-chlorophenyl)-2-(methylamino)pyrido[2,3-d]pyrimidin-7(8H)-one]
- ΔTm at 10 µM ([1]; read-out: dTm 10): 0.4 °C
- ΔTm at 10 µM ([2]; read-out: dTm 10): 0.1 °C
- ΔTm at 10 µM ([3]; read-out: dTm 10): 0.5 °C
- ΔTm at 10 µM ([4]; read-out: dTm 10): 2 °C
- ΔTm at 10 µM ([5]; read-out: dTm 10): 7.4 °C
- ΔTm at 10 µM ([6]; read-out: dTm 10): 0.6 °C

SMILES: CNc1ncc2cc(-c3cc(Cl)ccc3Cl)c(=O)n(CCCCN)c2n1 [compound 8, 8-(4-Aminobutyl)-6-(2,5-dichlorophenyl)-2-(methylamino)pyrido[2,3-d]pyrimidin-7(8H)-one]
- ΔTm at 10 µM ([1]; read-out: dTm 8): 0.5 °C
- ΔTm at 10 µM ([2]; read-out: dTm 8): 0.1 °C
- ΔTm at 10 µM ([3]; read-out: dTm 8): 0.5 °C
- ΔTm at 10 µM ([4]; read-out: dTm 8): 2.4 °C
- ΔTm at 10 µM ([5]; read-out: dTm 8): 7.1 °C
- ΔTm at 10 µM ([6]; read-out: dTm 8): 0.3 °C

Next, values leading:

- ΔTm at 10 µM ([1]; read-out: dTm 12): 6.3 °C
- ΔTm at 10 µM ([2]; read-out: dTm 12): 5.7 °C
- ΔTm at 10 µM ([3]; read-out: dTm 12): -0.7 °C
- ΔTm at 10 µM ([4]; read-out: dTm 12): 3.1 °C
- ΔTm at 10 µM ([5]; read-out: dTm 12): 3.9 °C
- ΔTm at 10 µM ([6]; read-out: dTm 12): -1.8 °C
SMILES: CNc1ncc2cc(-c3cc(F)c(-c4cccc(C)n4)cc3F)c(=O)n(CCCCN)c2n1 [compound 12, 8-(4-Aminobutyl)-6-(2,5-difluoro-4-(6-methylpyridin-2-yl)phenyl)-2-(methylamino)pyrido[2,3-d]pyrimidin-7(8H)-one]

- ΔTm at 10 µM ([1]; read-out: dTm 11): 0.6 °C
- ΔTm at 10 µM ([2]; read-out: dTm 11): 0 °C
- ΔTm at 10 µM ([3]; read-out: dTm 11): 0.2 °C
- ΔTm at 10 µM ([4]; read-out: dTm 11): 2.3 °C
- ΔTm at 10 µM ([5]; read-out: dTm 11): 6.4 °C
- ΔTm at 10 µM ([6]; read-out: dTm 11): -0.4 °C
SMILES: CNc1ncc2cc(-c3cc(Br)ccc3Br)c(=O)n(CCCCN)c2n1 [compound 11, 8-(4-Aminobutyl)-6-(2,5-dibromophenyl)-2-(methylamino)pyrido[2,3-d]pyrimidin-7(8H)-one]
